{"source": "paper PMC7259601", "about": "(PLoS ONE, 2020)", "key": {"Human recombinant IL-4I1": {"target": "T1, Human recombinant IL-4I1 (Homo sapiens, UniProt Q96RQ9)", "T1 construct": "purchased RD Systems 5684-AO-020", "T1 sequence (Q96RQ9 22-567)": "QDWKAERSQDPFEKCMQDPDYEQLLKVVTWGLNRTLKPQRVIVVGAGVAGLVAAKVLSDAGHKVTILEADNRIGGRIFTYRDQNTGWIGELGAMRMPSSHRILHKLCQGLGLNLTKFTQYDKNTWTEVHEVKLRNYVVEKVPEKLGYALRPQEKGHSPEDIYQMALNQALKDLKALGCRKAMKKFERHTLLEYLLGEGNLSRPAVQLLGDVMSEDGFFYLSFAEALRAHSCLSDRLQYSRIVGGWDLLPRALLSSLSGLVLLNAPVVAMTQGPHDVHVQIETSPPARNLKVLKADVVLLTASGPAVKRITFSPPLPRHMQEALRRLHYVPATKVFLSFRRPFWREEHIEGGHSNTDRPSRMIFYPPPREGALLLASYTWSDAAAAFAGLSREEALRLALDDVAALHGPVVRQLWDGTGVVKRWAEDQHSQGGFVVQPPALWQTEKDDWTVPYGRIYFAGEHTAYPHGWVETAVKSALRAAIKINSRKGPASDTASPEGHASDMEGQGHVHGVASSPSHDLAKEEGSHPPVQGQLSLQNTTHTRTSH", "test": "IL4I1 inhibition assay", "format": "biochemical", "protocol": "Human recombinant IL-4I1 was purchased from RD Systems (Ref. 5684-AO-020). The biochemical activity was measured by its ability to oxidize phenylalanine (specific substrate for IL-4I1; Sigma, P2126) and liberate H2O2 was measured in a coupled horseradish peroxidase assay using Amplex Red reagent as a substrate, as described in the KDM1A assay. The IL4I1 assay buffer was 50 mM Sodium Phosphate pH 7.0. Inhibition of IL-4I1 was monitored during 30 min in the presence of KM phenylalanine peptide at the KMapp of IL-4I1."}, "SAMP8 mice": {"test_system": "SAMP8 mice", "test": "Novel Object Recognition Test (NORT)", "format": "in vivo, mouse", "protocol": "Both male and female mice from the senescence accelerated strain SAMP8 and its control SAMR1 of different ages (see Table S3 for details) were used in these studies. Mice were breed in the animal facilities of the Pharmacy Faculty (University of Barcelona), maintained in a at 22 ± 2 °C controlled temperature in a 12 hr light / dark cycle (lights on at 8:00 am; 300 lux/0 lux) with ad libitum access to food (2018 TEKLAD, Harlan) and water. Male mice were housed individually (males) or in groups of 4-5 animals (females) in plastic colony boxes with a sawdust bedding material. […] SAMR1 mice treated with vehicle were included as a control. All drugs were administered via drinking water and diluted in vehicle. Drug concentration was calculated weekly in function of body weight and corrected in function of drinking water consumption. Cognitive function was evaluated by NORT, social behavior was evaluated by RI and anxiety and motor function were evaluated by EPM and OF. When necessary, animals were deeply anesthetized (80 mg/kg sodium pentobarbital) and brain samples (hippocampus, (prefrontal) cortex) were micro-dissected and processed according to the downstream analysis.\nThe protocol was performed as previously described. Briefly, animals were placed in a 90°- two-arm maze. Mice were habituated to the apparatus for 10 min during 3 consecutive days. On day 4, two identical novel objects (A+A or B+B) were placed at the end of each arm and animals performed a 10-min acquisition trial. A 10-min retention trial was carried out 2 hr after the acquisition trial with object A and B. Time exploring the novel (NO) and the familiar object (FO) was measured and a discrimination Index (DI) was defined as (NO-FO)/(NO+FO). In some experiments, a more restrictive threshold was applied and animals exploring less than 5 sec (NO+FO) were excluded from the analysis (Table S3).\nNovel Object Recognition Test (NORT): Time exploring the novel (NO) and the familiar object (FO) was measured and a discrimination Index (DI) was defined as (NO-FO)/(NO+FO). In some experiments, a more restrictive threshold was applied and animals exploring less that 5 sec (NO+FO) were excluded from the analysis (Table S3). Open Field (OF): Locomotor activity was analyzed by video-tracking over the captured images using SMART® (v 2.5.21 (rat) or v3.0 (mice), PanLab, SLU, Spain)."}, "platelet (PLT) levels": {"test_system": "platelet (PLT) levels", "test": "Rat pharmacodynamics: hematology, 5 day treatment and recovery", "text": "KDM1A is involved in hematopoiesis, and it is well known that KDM1A knockdown or KDM1A inhibitors can halt hematopoiesis when administered at sufficiently high doses and during sufficient time^(39). […] Data from N = 6 rats are represented as mean ± SEM.\nMale Wistar rats (N = 3 or 6 per dose level) of 10-12 weeks of age were maintained in air and temperature controlled cages with regular supply of water and food. A maximum of […] were raised. Before first administration, the animals were marked on the tail for identification. […] Animal of each treatment group were sampled for blood on days 1, 3, 5, 8, 10, 12, 15, 17 and 19. Blood samples of days 1, 3 and 5 were obtained just one hr after the compound administration. Blood samples were obtained from leg saphenous vein using recipients treated with EDTA to avoid coagulation. The last day of the study, rats were euthanized under CO2 saturated atmosphere and blood was extracted by cardiac puncture and collected in recipients containing EDTA.\nBlood samples obtained from leg saphenous vein or cardiac puncture were analyzed on a Diatron hematology analyzer at SEA (Plataforma Recerca Aplicada Animal de Laboratori, Parc Científic de Barcelona).\nHematology parameters were calculated as mean ± SEM and represented as a timecourse."}, "rKDM1A": {"target": "T2, rKDM1A (Homo sapiens, UniProt O60341)", "T2 construct": "purchased BPS Bioscience 50100", "test": "Kinetics of inhibition of KDM1A", "format": "biochemical", "conditions": "pure recombinant enzyme, H3K4me2 peptide", "protocol": "Time course experiments were performed to assess the rate of inhibition of demethylation of a H3K4me2 peptide mediated by rKDM1A, monitoring the release of H2O2 produced during the reaction using a coupled horseradish peroxidase assay using Amplex Red reagent as a substrate. Conditions were the same as for IC50 determinations, but all reagents were added simultaneously."}}, "data": [{"smiles": "Nc1nnc(CN[C@@H]2C[C@H]2c2ccc(OCc3ccccc3)cc2)o1", "note": "[ORY-2001, vafidemstat]", "values": [{"measurement": "inhibition at 10 µM", "setting": "Human recombinant IL-4I1", "result": 29, "unit": "%"}, {"measurement": "NORT discrimination capacity", "setting": "SAMP8 mice; 0.32 and 0.96 mg/kg/day (Exp3, Exp4)", "result": "completely restored the discrimination capacity"}, {"measurement": "NORT discrimination capacity, short treatment", "setting": "SAMP8 mice; 5 day treatment at 0.96 mg/kg/day (Exp5)", "result": "equally effective as a one month treatment"}, {"measurement": "NORT performance of aged SAMP8 mice", "setting": "SAMP8 mice; eight month old, treated 4 months (Exp7)", "result": "fully rescued the performance"}, {"measurement": "rescue of NORT discrimination deficit", "setting": "SAMP8 mice; lowest dose (0.11 mg/kg/day)", "result": "~ 50%"}, {"measurement": "dose limiting toxicity in 5 day MTD studies", "setting": "platelet (PLT) levels; hematopoietic impact", "result": "reversible and dose dependent impact on platelets"}, {"measurement": "maximum PLT rebound", "setting": "platelet (PLT) levels; rats, 5 day treatment, 14 day recuperation", "result": "~12", "unit": "days"}, {"measurement": "EC50 of PLT reduction", "setting": "platelet (PLT) levels; rats, p.o. gavage, 5 day treatment", "result": "~ 0.5 mg/kg"}, {"measurement": "KI (inactivation)", "setting": "rKDM1A", "result": 1800, "unit": "nM"}]}]}
